# According to US20190070174A1, “METHODS OF TREATING NEURODEGENERATIVE DISEASES” (priority 2016, published 2019):
# Tests used:
# human ATXN3 = assay: Subchronic treatment of Q84 mice, immunoblot of soluble lysates; assay type: in vivo; conditions: 15 mg/kg IP daily for 10 days
# Method: (§1) YACMJD84.2 transgenic mice were housed in cages with a maximum number of five animals and maintained in a standard 12-hour light/dark cycle with food and water ad libitum. Genotyping was performed using DNA isolated from tail biopsy at the time of weaning, and genotypes of all studied mice were confirmed using DNA extracted from tails collected post-mortem. […] Five hours after the final injection, mice were anesthetized with ketamine/xylazine and perfused transcardially with phosphate buffered saline (PBS) (for RNA and protein studies), and brains were immediately placed on dry ice and stored at −80° C.
# (§2) Protein lysates from cell cultures, mouse brain slices or mouse brains were obtained by lysis in RIPA buffer containing protease inhibitors (Complete, Roche Diagnostics), followed by sonication and centrifugation. The supernatants (soluble protein fractions) were collected, total protein concentration was determined using the BCA method (Pierce) and then stored at −80° C. […] Pellets corresponding to insoluble protein fractions were resuspended in 100 μL of Laemmli buffer 2× and boiled for 10 min. Insoluble proteins were then quantified, and 100 μg were loaded in a filter trap assay apparatus and transferred to a nitrocellulose membrane (0.45 μm pore) that was incubated overnight with rabbit anti-MJD antibody (1:5000) at 4° C. Bound primary antibodies were visualized by incubation with a peroxidase-conjugated anti-mouse or anti-rabbit secondary antibody (1:10000; Jackson Immuno Research Laboratories) followed by treatment with the ECL-plus reagent (Western Lighting, PerkinElmer) and exposure to autoradiography films. Band intensity was quantified by densitometry using ImageJ.
# (§3) Five hours after the final injection on day 10, mice were sacrificed and brains collected for total protein and RNA extraction from different regions: brainstem, cerebellum, cervical spinal cord, and forebrain.
# endogenous mouse Atxn3 = assay: as above; assay type: in vivo; conditions: 15 mg/kg IP daily for 10 days
# Method: as §1, §2, §3
# MJD/SCA3 flies = assay: Survival of MJD/SCA3 flies; assay type: in vivo, Drosophila; conditions: 50 μM in food from eclosion
# Method: Drosophila stocks were reared on standard cornmeal media at 25° C. in diurnal environments with ˜60% humidity. […] Full-length human ATXN3 cDNA with 77 CAG was cloned into pWalium10-moe (Perrimon Lab, Harvard Medical School). Flies that carry ATXN3 in site attP2 or the empty vector control into the same site as the most isogenic control line were generated. Injections were done into y[1], w[*]; +; attP2 (landing site). […] Adult flies of the following genotypes, w[*]; sqh-Gal4/+; UAS-ataxin-3Q77/+ or w[*], sqh-Gal4/+; Empty-Vector-Control/+ were switched from standard media to instant media as soon as they eclosed from their pupal case (day 0), and thereafter maintained on instant media with vehicle compound. Media was switched every three days, and death was noted daily.
# At least 200 flies in groups of 9 to 17 flies per treatment vial were monitored.
# ATXN3 = assay: Subchronic treatment of Q84 mice, anti-ATXN3 immunofluorescence of ventral pons; assay type: in vivo, human
# Method: as §1
# Brains from mice perfused with 4% PFA were post-fixed overnight at 4° C. in the same fixative, immersed in 30% sucrose/PBS, and sectioned on a sledge microtome (SM200R Leica Biosystems). […] Neuronal nuclear ATXN3 was quantified using ImageJ by quantifying ATXN3 fluorescence in DAPI and NeuN double-positive nuclei. Corrected total cell fluorescence (CTCF) was obtained by measuring ATXN3 fluorescence in 15 nuclei/image field/mouse and normalizing for nuclei area using the equation CTCF=fluorescence intensity−(nucleus area×mean fluorescence of background readings). ATXN3 positive puncta were quantified using ImageJ by assessing particle fluorescence (applying the triangle threshold) in the same image fields described above.
# human ATXN3 transcripts = assay: Subchronic treatment of Q84 mice, quantitative RT-PCR; assay type: in vivo; conditions: brainstem, 15 mg/kg IP daily for 10 days
# Method: as §1
# (§4) Reverse transcription of 1.5 μg of total RNA per sample was performed using the iScript cDNA synthesis kit (Bio-RAD). Human ATXN3 and mouse Atxn3, Drd2, 5HT1A, 5HT2A and Gapdh (housekeeping) transcript levels were accessed by quantitative real-time PCR. Relative gene expression was determined using the ΔΔCT method, normalizing for Gapdh mRNA levels.
# mouse Atxn3 transcripts = assay: as above; assay type: in vivo; conditions: brainstem, 15 mg/kg IP daily for 10 days
# Method: as §1, §4
# mouse Atxn3 = assay: Organotypic brain slice cultures from YACMJD84.2 (Q84) mice, immunoblotting; assay type: cell-based; conditions: sagittal brain slices treated for 48 hours, cerebellum and brainstem
# Method: (§5) Nine slices per brain were used in each set of cultures. […] After 48 hours of incubation at 37° C./5% CO2, brain slices were assessed for ATXN3 levels by immunoblotting or immunofluorescence and for cell viability. For immunoblotting, each slice was macrodissected into separate cerebellum and brainstem that were immediately frozen at −80° C. in 80 μL and 150 μL of cold RIPA buffer containing protease inhibitors (Complete, Roche Diagnostics), respectively. Cell viability was assessed on treated slices by incubation in propidium iodide (PI) 1 μg/mL in culture medium for 1 hour. Slices were then mounted in PROLONG Gold Antifade Reagent (Invitrogen) and imaged using a FV500 Olympus confocal microscope.
# Protein lysates from cell cultures, mouse brain slices or mouse brains were obtained by lysis in RIPA buffer containing protease inhibitors (Complete, Roche Diagnostics), followed by sonication and centrifugation. The supernatants (soluble protein fractions) were collected, total protein concentration was determined using the BCA method (Pierce) and then stored at −80° C. […] Insoluble proteins were then quantified, and 100 μg were loaded in a filter trap assay apparatus and transferred to a nitrocellulose membrane (0.45 μm pore) that was incubated overnight with rabbit anti-MJD antibody (1:5000) at 4° C. […] Band intensity was quantified by densitometry using ImageJ. […]
# human mutant ATXN3Q84 = assay type: cell-based; conditions: sagittal brain slices treated for 48 hours, cerebellum and brainstem
# Method: as §5, §2
# To assess the efficacy of the five compounds to reduce ATXN3 levels in the mammalian brain, secondary screens in organotypic brain slice cultures derived from hemizygous YACMJD84.2 (Q84) transgenic mice were performed.
# [1] = Pharmacokinetics after intraperitoneal injection; assay type: in vivo, mouse; conditions: 15 mg/kg IP, mice
# [2] = system: high molecular weight (HMW) ATXN3 species; assay: ATXN3 immunoblotting of protein lysates from fly heads; assay type: in vivo, Drosophila
structure (smiles),measurement,setting,value
O=C1CCc2ccc(OCCCCN3CCN(c4cccc(Cl)c4Cl)CC3)cc2N1 [aripiprazole],"HMW ATXN3 species, of levels in vehicle-treated mice","human ATXN3; brainstem, Q84 mice",44%
same,levels of monomeric human ATXN3,human ATXN3; soluble lysates,trend toward decreased levels
same,levels of endogenous mouse Atxn3,endogenous mouse Atxn3,trend toward decreased levels
same,increased mean survival compared with vehicle-treated flies,MJD/SCA3 flies,1.3 days
same,mean survival,MJD/SCA3 flies; vehicle-treated 7.7±0.343,9.0 ± 0.367 days
same,ATXN3 nuclear levels vs vehicle,ATXN3; neuronal nuclei of ventral pons,no differences
same,total ATXN3 fluorescence vs control mice,ATXN3; pons,non-significant trend towards a decrease
same,human ATXN3 transcript levels vs vehicle-treated mice,human ATXN3 transcripts,similar
same,mouse Atxn3 transcript levels vs vehicle-treated mice,mouse Atxn3 transcripts,similar
same,levels of mouse Atxn3,mouse Atxn3,reduced levels
same,levels of human mutant ATXN3Q84,human mutant ATXN3Q84,reduced levels
same,time of maximal concentration in the brain post-injection,[1],30 min
same,"HMW ATXN3 species, of levels in vehicle-treated flies","[2]; day 12, 50 μM",0.73
same,"HMW ATXN3 species, of levels in vehicle-treated flies","[2]; day 15, 50 μM",0.41
same,"HMW ATXN3 species, of levels in vehicle-treated flies","[2]; day 19, 50 μM",0.53
